Test results published in ChEMBL document CHEMBL3526157, “Unique metabolic pathway of [(14)C]lenvatinib after oral administration to male cynomolgus monkey” (Drug Metab Dispos, 2012).

Tests used:
Cynomolgus monkey [1] = test: Drug metabolism in cynomolgus monkey treated with 30 mg/kg, po of [14C]lenvatinib administered on day 1, 2 and 4 by radio-LC/MS analysis; type: ADME, organism-based, Macaca fascicularis; parameters: dose 30 mg/kg, route oral; conditions: in vivo
Cynomolgus monkey [2] = test: Drug retention time in cynomolgus monkey treated with 30 mg/kg, po of [14C]lenvatinib administered on day 1, 2 and 4 by radio-LC/MS analysis; type: ADME, organism-based, Macaca fascicularis; parameters: dose 30 mg/kg, route oral; conditions: in vivo
[3] = Drug metabolism in cynomolgus monkey liver S9 fraction treated with 50 uM of lenvatinib up to 120 mins by HPLC analysis in presence of GSH and NADPH; type: ADME, subcellular, Macaca fascicularis; conditions: s9, 2 h
[4] = Drug metabolism in Sprague-Dawley rat liver S9 fraction treated with 50 uM of lenvatinib up to 60 mins by HPLC analysis in presence of GSH and NADPH; conditions: s9, 1 h
[5] = Drug metabolism in human liver S9 fraction treated with 50 uM of lenvatinib up to 120 mins by HPLC analysis in presence of GSH and NADPH; type: ADME, subcellular; conditions: s9, 2 h
[6] = Drug metabolism in human liver S9 fraction treated with 50 uM of lenvatinib up to 120 mins by HPLC analysis in presence of GSH and absence of NADPH; type: ADME; conditions: s9, 2 h
[7] = Drug metabolism in cynomolgus monkey liver S9 fraction treated with 50 uM of lenvatinib up to 120 mins by HPLC analysis in presence of GSH and absence of NADPH; type: ADME, Macaca fascicularis; conditions: s9, 2 h
[8] = Drug metabolism in Sprague-Dawley rat liver S9 fraction treated with 50 uM of lenvatinib up to 60 mins by HPLC analysis in presence of GSH and absence of NADPH; conditions: s9, 1 h

Row | Structure (SMILES) | Drug metabolism (Cynomolgus monkey [1]) | Retention_time (Cynomolgus monkey [2]) | Drug metabolism [3] | Drug metabolism [4] | Drug metabolism [5] | Drug metabolism [6] | Drug metabolism [7] | Drug metabolism [8]
1 | COc1cc2nccc(N[C@@H](CS)C(=O)O)c2cc1C(N)=O | metabolite_detected | 14.5 min |  |  |  |  |  | 
2 | COc1cc2nccc(N[C@@H](CSSC[C@H](Nc3ccnc4cc(OC)c(C(N)=O)cc34)C(=O)NCC(=O)O)C(=O)O)c2cc1C(N)=O | metabolite_detected | 14.1 min |  |  |  |  |  | 
3 | COc1cc2nccc(SC[C@H](NC(=O)CC[C@H](N)C(=O)O)C(=O)NCC(=O)O)c2cc1C(N)=O | metabolite_detected | 13.1 min | metabolite_detected | metabolite_detected | metabolite_detected | metabolite_detected | metabolite_detected | metabolite_detected
4 | COc1cc2nccc(N[C@@H](CSSC[C@H](Nc3ccnc4cc(OC)c(C(N)=O)cc34)C(=O)O)C(=O)O)c2cc1C(N)=O | metabolite_detected | 13.5 min |  |  |  |  |  | 
